pIC50: −log10 of the molar value. Non-standard residues stand in square brackets, D forms with d. Primed or numbered codes have the meaning given here. No end group written: not given here. Ida = iminodiacetic acid linker, its two carboxyls bind the Lys side-chain amines of two peptides, giving a homodimer; Ida(3) = iminodiacetic acid linker, Lys side-chain amines bound to its two carboxyl groups; Dip = N[C@H](C(=O)O)C(c1ccccc1)c1ccccc1; Cha = N[C@@H](CC1CCCCC1)C(=O)O; Phg = N[C@H](C(=O)O)c1ccccc1
Tested on: HUVECs
Assay type: cell-based
Conditions: HUVEC proliferation, bFGF at 10 ng/ml or VEGF at 5 ng/ml, 48 hours, BrdU incorporation; read-out: IC50 on HUVECs
In short: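 Proliferation read-out: BrdU incorporation after 48-hour culture (37 ° C, 5% CO2) with graded peptide doses. Cells were in EBM with 2% FCS at 5,000 per well, driven by VEGF (5 ng/ml) or bFGF (10 ng/ml), added after ≥12-hour attachment.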

313 (Ac-RARRRQAVAIGFK(Ida)-NH2; also: homodimer via Ida linker on Lys13 side chain) [compound 313]
pIC50: 4.52 to 5.00

314 (Ac-RARRRQAVAIPFK(Ida)-NH2; also: homodimer via Ida linker on Lys13 side chain) [compound 314]
pIC50: < 4.52

316 (Ac-ARRRRQAVHIYFK(Ida)-NH2; also: homodimer via Ida linker on Lys13 side chain) [compound 316]
pIC50: > 5.00

317 (Ac-ARRRRQHVAIYFK(Ida)-NH2; also: homodimer via Ida linker on Lys13 side chain) [compound 317]
pIC50: > 5.00

318 (XRRRRQAVAIYFK; Xaa = Acylated Histidine; The side chain of Lysine at position 13 is covalently bound to an Ida linker forming a homodimer of residues 1 through 13.) [compound 318]
pIC50: > 5.00

319 (Ac-ARRRRQHVHIYFK(Ida)-NH2; also: homodimer via Ida linker on Lys13 side chain) [compound 319]
pIC50: > 5.00

320 (XRRRRQAVHIYFK; Xaa = Acylated Histidine; The side chain of Lysine at position 13 is covalently bound to an Ida linker forming a homodimer of residues 1 through 13.) [compound 320]
pIC50: > 5.00

321 (XRRRRQHVAIYFK; Xaa = Acylated Histidine; The side chain of Lysine at position 13 is covalently bound to an Ida linker forming a homodimer of residues 1 through 13.) [compound 321]
pIC50: > 5.00

322 (XRRRRQHVHIYFK; Xaa = Acylated Histidine; The side chain of Lysine at position 13 is covalently bound to an Ida linker forming a homodimer of residues 1 through 13.) [compound 322]
pIC50: > 5.00

323 (Ac-RHRRRQHVRIYFK(Ida)-NH2; also: homodimer via Ida linker on Lys13 side chain) [compound 323]
pIC50: > 5.00

324 (Ac-RRHRRQHVRIYFK(Ida)-NH2; also: homodimer via Ida linker on Lys13 side chain) [compound 324]
pIC50: > 5.00

325 (Ac-RRRHRQHVRIYFK; not fully specified (residue 13, C-terminus); also: homodimer via Ida linker on Lys13 side chain) [compound 325]
pIC50: > 5.00

326 (Ac-RRRRHQHVRIYFK; not fully specified (residue 13, C-terminus); also: homodimer via Ida linker on Lys13 side chain) [compound 326]
pIC50: > 5.00

327 (XHRRRQHVRIYFK; not fully specified; Xaa = Acylated Histidine; The side chain of Lysine at position 13 is covalently bound to an Ida linker forming a homodimer of residues 1 through 13.) [compound 327]
pIC50: > 5.00

328 (XRHRRQHVRIYFK; not fully specified; Xaa = Acylated Histidine; The side chain of Lysine at position 13 is covalently bound to an Ida linker forming a homodimer of residues 1 through 13.) [compound 328]
pIC50: > 5.00

329 (Ac-ARRRRQRVAIYFK-NH2; not fully specified (residue 13); also: homodimer via Lys13 side chain, GP3 linker) [compound 329]
pIC50: > 5.00

330 (XRRHRQHVRIYFK; not fully specified; Xaa = Acylated Histidine; The side chain of Lysine at position 13 is covalently bound to an Ida linker forming a homodimer of residues 1 through 13.) [compound 330]
pIC50: > 5.00

332 (XRRRHQHVRIYFK; not fully specified; Xaa = Acylated Histidine; The side chain of Lysine at position 13 is covalently bound to an Ida linker forming a homodimer of residues 1 through 13.) [compound 332]
pIC50: > 5.00

333 (Ac-RHHRRQHVRIYFK; not fully specified (residue 13, C-terminus); also: homodimer via Ida linker on Lys13 side chain) [compound 333]
pIC50: > 5.00

334 (Ac-ARRRRQRVAIYFK; not fully specified (residue 13, C-terminus); also: homodimer via Ida linker on Lys13 side chain, acetate salt) [compound 334]
pIC50: > 5.00

335 (Ac-RHRRHQHVRIYFK; not fully specified (residue 13, C-terminus); also: homodimer via Ida linker on Lys13 side chain) [compound 335]
pIC50: > 5.00

336 (Ac-ARRRRQRVAIYFK-NH2; not fully specified (residue 13); also: homodimer via Lys13 side chain, Ida-PEG 20 kDa linker) [compound 336]
pIC50: > 5.00

337 (Ac-RHRHRQHVRIYFK(Ida(3))-NH2; also: homodimer via Lys13 side chain, Ida linker (Ida amino group Boc)) [compound 337]
pIC50: > 5.00

338 (Ac-RHRRRQHVHIYFK(Ida(3))-NH2; also: homodimer via Lys13 side chain, Ida linker (Ida amino group Boc)) [compound 338]
pIC50: > 5.00

339 (Ac-RRHHRQHVRIYFK(Ida(3))-NH2; also: homodimer via Lys13 side chain, Ida linker (Ida amino group Boc)) [compound 339]
pIC50: > 5.00

340 (Ac-RRHRHQHVRIYFK(Ida(3))-NH2; also: homodimer via Lys13 side chain, Ida linker (Ida amino group Boc)) [compound 340]
pIC50: > 5.00

341 (Ac-RRHRHQRVHIYFK(Ida(3))-NH2; also: homodimer via Lys13 side chain, Ida linker (Ida amino group Boc)) [compound 341]
pIC50: > 5.00

343 (Ac-ARRRRQRVAIY[Phg]K-NH2; not fully specified (residue 13); also: homodimer via Lys13 side chain, Ida linker) [compound 343]
pIC50: > 5.00

344 (Ac-ARRRRQRVAIY[Cha]K-NH2; not fully specified (residue 13); also: homodimer: Lys13 side chains joined by Ida (iminodiacetic acid) linker) [compound 344]
pIC50: > 5.00

345 (Ac-ARRRRQRVAIYWK-NH2; not fully specified (residue 13); also: homodimer of residues 1-13 via Ida linker on Lys13 side chain) [compound 345]
pIC50: > 5.00

346 (Ac-ARRRRQRVAIYEK-NH2; not fully specified (residue 13); also: homodimer of residues 1-13 via Ida linker on Lys13 side chain) [compound 346]
pIC50: < 4.52

347 (Ac-ARRRRQRVAIYTK-NH2; not fully specified (residue 13); also: homodimer of residues 1-13 via Ida linker on Lys13 side chain) [compound 347]
pIC50: < 4.52

348 (Ac-ARRRRQRVAIYHK-NH2; not fully specified (residue 13); also: homodimer of residues 1-13 via Ida linker on Lys13 side chain) [compound 348]
pIC50: < 4.52

349 (Ac-ARRRRQRVAIYPK-NH2; not fully specified (residue 13); also: homodimer of residues 1-13 via Ida linker on Lys13 side chain) [compound 349]
pIC50: < 4.52

350 (Ac-ARRRRQRVAIY[Dip]K-NH2; not fully specified (residue 13); also: homodimer of residues 1-13 via Ida linker on K13 side chain) [compound 350]
pIC50: > 5.00

351 (Ac-ARRRRQRVAIYGK-NH2; not fully specified (residue 13); also: homodimer of residues 1-13 via Ida linker on K13 side chain) [compound 351]
pIC50: < 4.52

352 (Ac-ARRRRQRVAIYIK-NH2; not fully specified (residue 13); also: homodimer of residues 1-13 via Ida linker on K13 side chain) [compound 352]
pIC50: > 5.00

353 (Ac-ARRRRQRVAIYYK-NH2; not fully specified (residue 13); also: homodimer of residues 1-13 via Ida linker on K13 side chain) [compound 353]
pIC50: < 4.52

355 (Ac-ARRRR[dQ]RVAIIFK; not fully specified) [compound 355]
pIC50: < 4.52

356 (Ac-A[dR]RRRQRVAIIFK; not fully specified) [compound 356]
pIC50: < 4.52

357 (Ac-RRRRRQAVRIQIQFK; not fully specified) [compound 357]
pIC50: 4.52 to 5.00

358 (Ac-RRRRRQAVRIDIDFK; not fully specified) [compound 358]
pIC50: < 4.52

359 (Ac-RRRHHQHVRIYFK(Ida(3))-NH2; also: homodimer via Ida linker on Lys13 side chain, Boc on Ida amine) [compound 359]
pIC50: > 5.00

360 (Ac-RRRHRQHVHIYFK(Ida(3))-NH2; also: homodimer via Ida linker on Lys13 side chain, Boc on Ida amine) [compound 360]
pIC50: > 5.00

361 (Ac-ARRRRQRVAIYFK; not fully specified) [compound 361]
pIC50: < 4.52

Source: patent US20070203066A1, “Compositions and methods for inhibiting cellular proliferation” (priority 2005, published 2007)
